The data set in a line: method code SF-HPLC, from DOI: 10.1016/b978-0-08-029222-9.50040-8.

For the compound `CC(C)C(=O)N(C)SN(C)C(=O)Oc1cccc2c1OC(C)(C)C2`, the logP amounted to 3.6. Compound `CSC(C)=NOC(=O)N(C)SN(C)C(=O)c1c(Cl)cccc1Cl` yielded a logP of 2.6. To `CN(SN(C)C(=O)c1ccccc1Cl)C(=O)Oc1cccc2c1OC(C)(C)C2` belongs 4.1. Next, `CSC(C)=NOC(=O)N(C)SN(C)C(=O)c1ccc(Cl)cc1Cl`: 3.2; `CSC(C)=NOC(=O)N(C)SN(C)C(=O)c1ccccc1`: 2.2; `CSC(C)=NOC(=O)N(C)SN(C)C(=O)C(C)C`: 2.2. Compound `CCC(=O)N(C)SN(C)C(=O)Oc1cccc2c1OC(C)(C)C2` gave a logP of 3.2. Next, `CCOC(=O)N(C)SN(C)C(=O)Oc1cccc2c1OC(C)(C)C2`: 3.5; `CSC(C)=NOC(=O)N(C)SN(C)C(=O)ON=C(C)SC`: 1.7; `CC(=O)N(C)SN(C)C(=O)Oc1cccc2c1OC(C)(C)C2`: 2.7.

`CN(SN(C)C(=O)c1ccccc1)C(=O)Oc1cccc2c1OC(C)(C)C2` gave a logP of 3.5.

Take `CSC(C)=NOC(=O)N(C)SN(C)C(=O)N(C(C)C)C(C)C`: the logP worked out at 2.6. To `CSC(C)=NOC(=O)N(C)SN(C)C(=O)C1CC1` belongs 1.7. In turn, `CCCC(=O)N(C)SN(C)C(=O)Oc1cccc2c1OC(C)(C)C2` showed a logP of 3.8. To `CN(SN(C)C(=O)c1ccc(Cl)cc1)C(=O)Oc1cccc2c1OC(C)(C)C2` belongs 4. For the compound `CSC(C)=NOC(=O)N(C)SN(C)C(=O)c1cccc(Cl)c1`, the logP was 2.7. Next, `CCCCCCOC(=O)N(C)SN(C)C(=O)ON=C(C)SC`: 4.2. Take `CCCCCCCCCCOC(=O)N(C)SN(C)C(=O)ON=C(C)SC`: the log partition coefficient (logP) was 6.2.

`COC(=O)N(C)SN(C)C(=O)Oc1cccc2c1OC(C)(C)C2` yielded a logP of 3. Next, `CSC(C)=NOC(=O)N(C)SN(C)C(=O)c1cccc(C(F)(F)F)c1`: 2.5.

Compound `CCCCN(SN(C)C(=O)ON=C(C)SC)C(=O)c1ccccc1` displayed a logP of 3.4. Next, `CCCCOC(=O)N(CCCC)SN(C)C(=O)ON=C(C)SC`: 4.2; `CS/C(C)=N\OC(=O)N(C)SN(C)C(=O)c1ccc(C)cc1`: 2.5. Next, `CSC(C)=NOC(=O)N(C)SN(C)C(=O)c1ccc(Cl)cc1`: 2.6. Compound `CSC(C)=NOC(=O)N(C)SN(C(=O)c1ccc(C)cc1)C(C)C` yielded a logP of 3.4. To `CCCCCCN(SN(C)C(=O)ON=C(C)SC)C(=O)N(C)C` belongs 3.3. As for `CCN(CC)C(=O)N(C)SN(C)C(=O)ON=C(C)SC`, the logP turned out to be 3.2. This logP and that of the compound before are within 0.2 log units of each other. To `CSC(C)=NOC(=O)N(C)SN(C)C(=O)c1ccccc1Cl` belongs 2.5. In turn, `CSC(C)=NOC(=O)N(C)SN(C)C(=O)OC1CCCCC1` gave a log partition coefficient (logP) of 3.6. To `CCCC(=O)N(C)SN(C)C(=O)ON=C(C)SC` belongs 2.2; to `CN(SN(C)C(=O)c1ccc(Cl)cc1Cl)C(=O)Oc1cccc2c1OC(C)(C)C2`, 4.9.

`CCCCN(SN(C)C(=O)ON=C(C)SC)C(C)=O` registered a logP of 2.4.

For `CS/C(C)=N\OC(=O)N(C)SN(C)C(C)=O`, the logP came out at 1.3. Next, `CCC(=O)N(C)SN(C)C(=O)ON=C(C)SC`: 1.6; `CCCCN(SN(C)C(=O)O/N=C(\C)SC)C(=O)OC`: 2.5; `COC(=O)N(C)SN(C)C(=O)O/N=C(\C)SC`: 1.4.

Regarding `CN(SN(C)C(=O)OC(C)(C)C)C(=O)Oc1cccc2c1OC(C)(C)C2`, the logP is 4.3. Next, `CNC(=O)ON=C(C)SC`: 0.6; `CCCCCCC(=O)N(SN(C)C(=O)ON=C(C)SC)c1ccccc1`: 4.2; `CCCCN(SN(C)C(=O)Oc1cccc2c1OC(C)(C)C2)C(=O)OC`: 4.6.

Source of the values: the SangsterLogP compilation.
